The results in this text go back to patent US12600926B2, “Treatment compositions with modified amino acid dimers for delivering a benefit agent” (The Procter & Gamble Company, priority 2022, dated 2026).

A short description of this data set: Stability of the independent neat fluid by 1H NMR. Format: physicochemical. Particulars: neat premix fluid, storage. On the procedure: Synthetic Example 1′ was prepared as described in General Method A, but using 10 g of L-Cystine, 17.0 g of dodecanol, and 17.4 g PTSA·H2O. The isolated fluid of Synthetic Example 1′ was then mixed with cyclamen aldehyde as described in General Method B yielding Synthetic Example 1.
Synthetic Example 2′ was prepared as described in General Method A, but using 5.0 g of 2,6-Diaminoheptanedioic acid, 10.5 g of dodecanol, and 11 g PTSA·H2O. The isolated fluid of Synthetic Example 2′ was then mixed with 15 wt % ethanol, and cyclamen aldehyde as described in General Method B yielding Synthetic Example 2A.
Synthetic Example 2′ was prepared as described in General Method A, but using 5.0 g of 2,6-Diaminoheptanedioic acid, 10.8 g of dodecanol, and 11.1 g PTSA H2O. The isolated fluid of Synthetic Example 2′ was then mixed with 15 wt % ethanol, and δ-Damascone, as described in General Method B yielding Synthetic Example 2B.

On to `CCCCCCCCCCCCOC(=O)C(CCCC(N=CC(C)Cc1ccc(C(C)C)cc1)C(=O)OCCCCCCCCCCCC)N=CC(C)Cc1ccc(C(C)C)cc1` (centres unmarked) [Synthetic Example 2A], for which the “Stability of the independent fluid by 1H NMR” value was “stable for several months”.

For `CCCCCCCCCCCCOC(=O)C(CCCC(NC(C)CC(=O)C1C(C)C=CCC1(C)C)C(=O)OCCCCCCCCCCCC)NC(C)CC(=O)C1C(C)C=CCC1(C)C` (centres unmarked) [Synthetic Example 2B], the “Stability of the independent fluid by 1H NMR” value is reported as “stable for several months”.
